Source: the NIST ThermoML archive (doi:10.1016/j.jct.2008.07.005)

Assay: xn = mol fraction of the nth substance listed
Details: 98.93 kPa, Liquid

OCC(O)CO [glycerol] + O
mass density [kg/m3]
Details | 283.15 K | 288.15 K | 293.15 K
x1 = 0.002 | 1002.15 | 1001.53 | 1000.6
x1 = 0.005 | 1005.76 | 1005.11 | 1004.14
x1 = 0.01 | 1011.64 | 1010.93 | 1009.9
x1 = 0.019 | 1022.85 | 1022.06 | 1020.89
x1 = 0.03 | 1033.4 | 1032.52 | 1031.22
x1 = 0.04 | 1043.36 | 1042.38 | 1040.97
x1 = 0.05 | 1052.76 | 1051.69 | 1050.15
x1 = 0.065 | 1065.9 | 1064.68 | 1062.99
x1 = 0.08 | 1078.01 | 1076.64 | 1074.81
x1 = 0.1 | 1092.7 | 1091.17 | 1089.16
x1 = 0.125 | 1109.07 | 1107.35 | 1105.15
x1 = 0.1526 | 1124.96 | 1123.05 | 1120.68
x1 = 0.17 | 1133.96 | 1131.96 | 1129.5
x1 = 0.18 | 1138.83 | 1136.77 | 1134.27
x1 = 0.2 | 1147.94 | 1145.78 | 1143.22
